Measured values from patent US12251422B2, “Compositions and methods for treating neurological and other disorders” (Rush University Medical Center, priority 2018, dated 2025).

Columns and labels:
[1] = target: T1, C-terminal TIR domain of TLR2 protein (cTLR2) (Mus musculus, UniProt Q9QUN7); test: Surface plasmon resonance binding of TIDM peptides to cTLR2
T1 construct: The cTLR2 (640-784 amino acids) tagged with c-myc was cloned in lenti vector; made in house; host or cells: HEK293 cells (lentiviral expression)
Experimental: TLR2 full-length construct (pLenti-cmyc-DDK/tlr2) was purchased from Origene. The cTLR2 (640-784 amino acids) tagged with c-myc was cloned in lenti vector using TOPO TA cloning kit (K5310-00; Life technologies). Briefly, a kozak sequence was incorporated in the upstream of C-terminal TIR domain of TLR2. Next, cTLR2 was cloned in lentivector followed by packaging in lentivirus using HEK293FT cells. After 48 h, media was collected and concentrated with Lenti-X Concentrator (Cat #631231; Clontech). This concentrated lentiviral sup was used for viral transduction. The cTLR2 protein was isolated from HEK293 cell lysate by passing through Myc affinity column. Purified protein was desalted and concentrated by using 10 kD molecular cut-off filtration system.
To analyze the binding of TLR2 with TIDM peptides, surface plasmon resonance (SPR) experiments were carried out using a Reichert 4SPR instrument (Reichert Technologies, Buffalo, NY). Binding assay was performed using a 500 kDa Carboxymethyl Dextran Gold Sensor Slide (Reichert Inc.) for capturing TLR2. Protein immobilization was at a flow rate of 30 μl/min in PBS for 3 min with 0.8 mg/mL solution of TLR2. For analyte association, different concentrations of wtTIDM and mTIDM peptides in PBS running buffer were injected for 2.5 min at a rate of 30 μl/min followed by a dissociation phase of 3 min. The sensor surface was regenerated after each dissociation cycle by allowing buffer to flow at 40 μl/min for a minimum of 15 min. Signals obtained for the TLR2-bound surface were subtracted by signals obtained for the reference cell according to standard procedure using the system software. The concentration dependence of the subtracted signal was analyzed to determine binding affinity of TLR2 with wtTIDM and mTIDM peptides.

TNFα and IL-1β = TNFα and IL-1β ELISA in supernatants of WT primary microglia; assay type: cell-based, mouse; details: peptide 1 h, 1 μM fibrillar Aβ1-42 for 18 h
Experimental: FIG. 16 (A-F). […] Primary microglia isolated from WT (A) and TLR2 (−/−) (B) mice were treated with different concentrations of wtTIDM peptide for 1 h followed by stimulation with 1 μM fibrillar Aβ1-42 under serum-free condition. After 1 h of stimulation, the activation of NF-κB was monitored by EMSA. WT (C & D) and TLR2 (−/−) (E & F) microglia were treated with different concentrations of wtTIDM and mTIDM peptides for 1 h followed by stimulation with 1 μM fibrillar Aβ1-42 under serum-free condition. After 18 h of stimulation, levels of TNFα (C & E) and IL-1β (D & F) were monitored in supernatants by ELISA (n=2 replicates/condition in 3 independent experiments). ap<0.001 vs control; bp<0.001 vs stimuli by two-sample t-tests.

5×FAD Tg mice = test: Tau phosphorylation in hippocampus of 5×FAD Tg mice; assay type: in vivo, mouse; details: 0.1 mg/kg body wt/2 d intranasal, 30 d
Experimental: FIG. 22 (A-B). Intranasal delivery of wtTIDM, but not mTIDM, peptide decreases the phosphorylation of tau in the hippocampus of Tg mice. […] B) Bands were scanned and values (P-Tau/Tau) presented as relative to non-Tg control. Results were analyzed by two-sample t-tests.
B6SJL-Tg (APPSwFlLon,PSEN1*M146L*L286V) 6799Vas/J transgenic (5×FAD or termed here as Tg) mice were purchased from Jackson Laboratories (Bar Harbor, ME). […] Briefly, TIDM peptides were dissolved in 5 μl normal saline, mice were hold in supine position and saline was delivered into one nostril using a pipetman.

EAE mice = test: Experimental allergic encephalomyelitis (EAE) in C57/BL6 mice; assay type: in vivo, mouse; details: 0.1 mg/kg body wt/d intranasal from 10 dpi
Source text: FIG. 7 (A-V). The wtTIDM, but not mTIDM, peptide protects mice from experimental allergic encephalomyelitis (EAE) and collagen-induced arthritis (CIA). […] Mice (n=6 per group in two independent experiments) were scored daily. […] On 22 dpi, general motor activities were monitored using the Ethovision XT 13.0 Open Field Activity System (Noldus) (B, heat-map images representing overall motor activities; C, distance travelled; D, rearing; E, velocity; F, acceleration) and rotorod (G). Foot print analysis (H, stride length; I, print length; J, sway length; K, toe spread) was also performed, L) CIA was induced in male DBA/1J mice by bovine type II collagen immunization and from 29 dpi, mice were treated with wtTIDM and mTIDM peptides (1 mg/kg body wt/d) via i.p. injection. Mice (n=6 per group in two independent experiments) were scored daily. […] On 60 dpi, general motor activities were monitored by Ethovision System (M, heat-map images representing overall motor activities; N, distance travelled; O, rearing; P, velocity), rotorod (Q) and grip strength (R). Foot print analysis (S, stride length; T, print length; U, sway length; V, toe spread) was also performed. Six mice (n=6 per group) were used in two independent experiments. ap<0.001 & bp<0.05 vs control; cp<0.001 & dp<0.05 vs EAE or CIA by two-sample t-tests.
FIG. 25 (A-D). Footprint analysis of EAE mice after treatment with wtTIDM and mTIDM peptides. On the walking track, we applied white paper strips and obtained the footprints of mice of different groups (A, control; B, EAE; C, EAE+wtTIDM; D, EAE+mTIDM) on paper using black ink. A total of 30-40 steps for each group were determined. Four different footprint measurements, viz., stride length (SL), print length (PL), sway length (SWL), and toe spread (TS) were calculated in centimeters from the recorded prints of mice. While SL refers the distance between the front edge of two consecutive prints of the same paw, SWL refers the distance between the paws perpendicular to the distance of travel and PL indicates the measurement of length of print area. […]

T1 sequence (Q9QUN7 640-784): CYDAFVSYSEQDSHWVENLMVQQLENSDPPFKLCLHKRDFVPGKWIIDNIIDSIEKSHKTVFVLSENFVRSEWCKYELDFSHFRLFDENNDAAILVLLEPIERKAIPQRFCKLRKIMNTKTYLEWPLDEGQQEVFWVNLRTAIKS

CC[C@H](C)[C@H](NC(=O)[C@H](CCCCN)NC(=O)[C@@H](NC(=O)[C@H](CCC(N)=O)NC(=O)[C@H](CCCNC(=N)N)NC(=O)[C@@H](N)CC(=O)O)[C@@H](C)CC)C(=O)N[C@@H](Cc1c[nH]c2ccccc12)C(=O)N[C@@H](Cc1ccccc1)C(=O)N[C@@H](CCC(N)=O)C(=O)N[C@@H](CC(N)=O)C(=O)N[C@@H](CCCNC(=N)N)C(=O)N[C@@H](CCCNC(=N)N)C(=O)N[C@@H](CCSC)C(=O)N[C@@H](CCCCN)C(=O)N[C@@H](Cc1c[nH]c2ccccc12)C(=O)N[C@@H](CCCCN)C(=O)N[C@@H](CCCCN)C(=O)N1CCC[C@H]1C(=O)NCC(=O)N[C@@H](C)C(=O)N[C@@H](Cc1c[nH]cn1)C(=O)N[C@@H](CCC(N)=O)C(=O)N[C@@H](CCCCN)C(=O)O [wtTIDM, drqikiwfqnrrmkwkkPGAHQK]
Kd [1]: 8 µM
affinity for cTLR2 stronger than mTIDM ([1]; ratio of Kd values): approximately 2.5 times
inhibition of fibrillar Aβ1-42-induced production of TNFα and IL-1β in WT microglia (TNFα and IL-1β): inhibited
phospho-tau in the hippocampus (5×FAD Tg mice): suppression
total level of tau protein (5×FAD Tg mice): without affecting
clinical symptoms of EAE (EAE mice): strongly inhibited
locomotor activities and footprints in EAE mice (EAE mice; 22 dpi): improved

CC[C@H](C)[C@H](NC(=O)[C@H](CCCCN)NC(=O)[C@@H](NC(=O)[C@H](CCC(N)=O)NC(=O)[C@H](CCCNC(=N)N)NC(=O)[C@@H](N)CC(=O)O)[C@@H](C)CC)C(=O)N[C@@H](Cc1c[nH]c2ccccc12)C(=O)N[C@@H](Cc1ccccc1)C(=O)N[C@@H](CCC(N)=O)C(=O)N[C@@H](CC(N)=O)C(=O)N[C@@H](CCCNC(=N)N)C(=O)N[C@@H](CCCNC(=N)N)C(=O)N[C@@H](CCSC)C(=O)N[C@@H](CCCCN)C(=O)N[C@@H](Cc1c[nH]c2ccccc12)C(=O)N[C@@H](CCCCN)C(=O)N[C@@H](CCCCN)C(=O)N1CCC[C@H]1C(=O)NCC(=O)N[C@@H](Cc1c[nH]c2ccccc12)C(=O)N[C@@H](Cc1c[nH]cn1)C(=O)N[C@@H](CCC(N)=O)C(=O)N[C@@H](CC(=O)O)C(=O)O [mTIDM, drqikiwfqnrrmkwkkPGWHQD]
Kd [1]: 19 µM
clinical symptoms of EAE (EAE mice): had no effect
